One test addresses T1, human recombinant DAT (Homo sapiens, UniProt Q01959).
T1 construct: expressed in transfected cells; 'hDAT cells' for uptake
The test can be described thus: [3H]-WIN35428 equilibrium binding, CHO-K1-hDAT membranes. As to conditions: mean (95% CI), 3 to 9 experiments, read-out: Transporter Binding: pKi DAT (converted). The text has this: (§1) The in vitro pharmacology of TD-9855 (4-[2-(2, 4, 6-trifluorophenoxymethyl)phenyl]piperidine; Figure 1) at human recombinant and rat native monoamine transporters was characterized as described previously ([Tsuruda et al., 2010]; [Shen et al., 2013]). Radioligands were sourced commercially (Perkin Elmer Life Sciences or GE Healthcare Life Sciences). Briefly, membranes prepared from HEK293 (Human Embryonic Kidney 293) cells stably-transfected with human recombinant SERT (HEK293-hSERT), NET (HEK293-hNET), or DAT ([…]) were incubated for 1hr at 22°C in the absence, or presence, of TD-9855 and [^3H]-citalopram (1.0nM) for SERT, [^3H]-nisoxetine (2.0nM) for NET, and [^3H]-WIN35428 (3.0nM) for DAT in 50mM Tris-HCl, 120mM NaCl, 5mM KCl, 0.025% BSA, 100 μM ascorbic acid, pH 7.4. Rat cortical membrane preparations were incubated with [^3H]-citalopram (2.0nM) for SERT or [^3H]-nisoxetine (4.0nM) for NET for 1hr at 22°C. […] Binding and uptake assays were terminated by rapid filtration and radioactivity, determined by liquid scintillation spectroscopy.

For another test, the target named is SERT (Homo sapiens, UniProt P31645). The test can be described thus: [3H]-citalopram equilibrium binding, HEK293-hSERT membranes. More on the design: expressed in transfected cells; host or cells: HEK293 (HEK293-hSERT), stably transfected. As to conditions: mean (95% CI), 3 to 9 experiments, read-out: Transporter Binding: pKi SERT (converted).
Excerpt: as §1

A further test addresses T2, NET (Rattus norvegicus, UniProt Q63380).
T2 construct: from tissue; host or cells: rat lumbar spinal cord after oral dosing
As to the kind of experiment: Ex vivo NET occupancy in rat spinal cord with PK/PD modeling. As to conditions: estimate (% CV). The method, then:
TD-9855 Rat Administration and Sampling — Rats (n = 6/timepoint/dose level) received a single oral dose of TD-9855 (0.3, 1, 5, 10, 30, and 60mg/kg) and were euthanized by decapitation at specified time points (0.5, 2, 4, 6, and 8hr for 5mg/kg dose level; 2hr for 0.3, 1, 10, 30, and 60mg/kg dose levels) post-administration. Spinal cords were dissected for ex vivo transporter occupancy and PK assessments from the same animals. The spinal cord was harvested by hydraulic extrusion using phosphate-buffered saline, and the lumbar segment dissected and frozen on dry ice. The remaining spinal cord segments were collected and homogenized in water (25% w/w) for PK analysis. All samples were stored at -80 °C until analysis.
A kinetic radioligand binding assay was used to determine NET and SERT occupancy in rat spinal cord, as described previously ([Bourdet et al., 2012]).
Rat PK/PD Modeling — PK/PD parameters were estimated by a compartmental modeling approach (WinNonlin Version 5.0.1, Pharsight Corporation). One- and two-compartment PK models with first-order absorption and elimination were evaluated. The one-compartment model was selected. The pharmacodynamic model was an effect compartment Emax model linked directly to the central PK compartment (WinNonlin PK Model 3, PD Model 101). Selection of models was based upon best fit in terms of visual inspection, Akaike Information Criteria, and weighted residual sum of squares using the Gauss-Newton minimization method. The following parameters were estimated:
Emax (% occupancy): Maximal SERT or NET occupancy in spinal cord
keo (hr^-1): First-order equilibration rate constant between the central pharmacokinetic compartment and the pharmacodynamic effect compartment

Molecules are shown by their SMILES.

T2 sequence (Q63380 1-617): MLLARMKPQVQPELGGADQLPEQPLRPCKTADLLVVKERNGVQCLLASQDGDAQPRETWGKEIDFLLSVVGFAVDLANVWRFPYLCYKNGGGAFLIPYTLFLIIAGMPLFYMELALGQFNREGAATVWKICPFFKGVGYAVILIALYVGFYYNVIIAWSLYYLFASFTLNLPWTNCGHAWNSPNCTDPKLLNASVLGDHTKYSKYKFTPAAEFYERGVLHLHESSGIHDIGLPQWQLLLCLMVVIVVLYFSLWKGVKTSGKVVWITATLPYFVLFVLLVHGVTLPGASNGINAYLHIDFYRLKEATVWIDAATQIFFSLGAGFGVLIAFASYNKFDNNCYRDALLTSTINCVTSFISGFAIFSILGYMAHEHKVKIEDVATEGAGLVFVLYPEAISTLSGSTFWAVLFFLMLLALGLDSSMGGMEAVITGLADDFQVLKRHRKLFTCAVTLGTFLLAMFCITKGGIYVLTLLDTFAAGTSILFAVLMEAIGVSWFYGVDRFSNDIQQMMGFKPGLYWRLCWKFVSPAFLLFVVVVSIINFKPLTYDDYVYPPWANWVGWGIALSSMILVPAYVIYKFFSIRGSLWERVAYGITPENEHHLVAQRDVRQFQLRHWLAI
T1 sequence (Q01959 whole entry): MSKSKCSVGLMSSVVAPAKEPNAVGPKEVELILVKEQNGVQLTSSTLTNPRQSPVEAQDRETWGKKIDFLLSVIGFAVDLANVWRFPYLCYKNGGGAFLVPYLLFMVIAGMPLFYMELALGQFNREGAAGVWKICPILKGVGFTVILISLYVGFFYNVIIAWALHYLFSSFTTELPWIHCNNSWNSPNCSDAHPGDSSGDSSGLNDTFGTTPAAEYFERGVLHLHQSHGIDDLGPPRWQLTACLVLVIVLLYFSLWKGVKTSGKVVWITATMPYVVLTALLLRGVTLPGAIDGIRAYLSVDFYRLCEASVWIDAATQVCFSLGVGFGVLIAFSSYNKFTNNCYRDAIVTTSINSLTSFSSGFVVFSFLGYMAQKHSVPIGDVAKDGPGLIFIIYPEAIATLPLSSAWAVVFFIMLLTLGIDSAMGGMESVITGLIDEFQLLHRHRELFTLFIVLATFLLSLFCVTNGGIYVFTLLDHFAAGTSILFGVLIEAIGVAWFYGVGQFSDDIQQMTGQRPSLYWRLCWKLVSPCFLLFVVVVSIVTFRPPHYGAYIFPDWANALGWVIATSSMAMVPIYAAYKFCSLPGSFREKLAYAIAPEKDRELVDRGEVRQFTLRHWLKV
Chain of SERT (P31645 whole entry): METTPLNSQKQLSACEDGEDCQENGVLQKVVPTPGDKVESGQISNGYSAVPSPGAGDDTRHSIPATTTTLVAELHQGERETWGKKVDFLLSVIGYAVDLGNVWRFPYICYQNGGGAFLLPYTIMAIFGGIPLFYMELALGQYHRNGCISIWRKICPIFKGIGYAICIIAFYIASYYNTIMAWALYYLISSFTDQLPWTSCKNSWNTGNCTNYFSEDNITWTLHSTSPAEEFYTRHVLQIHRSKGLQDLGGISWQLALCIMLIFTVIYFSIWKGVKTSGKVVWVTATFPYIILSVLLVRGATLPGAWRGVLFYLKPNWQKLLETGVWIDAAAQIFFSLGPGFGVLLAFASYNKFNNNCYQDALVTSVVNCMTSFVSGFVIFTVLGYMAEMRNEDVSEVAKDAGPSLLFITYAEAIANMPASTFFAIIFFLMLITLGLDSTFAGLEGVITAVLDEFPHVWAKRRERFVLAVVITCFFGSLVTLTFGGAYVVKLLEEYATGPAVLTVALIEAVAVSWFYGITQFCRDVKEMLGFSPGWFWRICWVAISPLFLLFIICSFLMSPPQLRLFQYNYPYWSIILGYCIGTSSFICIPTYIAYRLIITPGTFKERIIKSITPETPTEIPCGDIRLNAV

Regarding `Fc1cc(F)c(OCc2ccccc2C2CCNCC2)c(F)c1` [TD-9855, 4-[2-(2,4,6-trifluorophenoxymethyl)phenyl]piperidine], the Ki on human recombinant DAT was 200 nM; on SERT, 3.16 nM. In addition, the “Emax (% Occupancy), NET” value at NET (rat spinal cord, oral 0.3-60mg/kg) was 92.0 (19) % Occupancy. The EC50 (usually the concentration needed to bring the measured effect to its halfway point) at NET (rat spinal cord, plasma EC50) was 36.4 nM. The “keo, NET” value on NET (rat, equilibration rate constant plasma to effect compartment) is listed as 1.78 (57) hr^-1.

Source of the values: PMC4368888, “Preclinical to Clinical Translation of CNS Transporter Occupancy of TD-9855, a Novel Norepinephrine and Serotonin Reuptake Inhibitor” (International Journal of Neuropsychopharmacology, 2015).
